Laboratory results as given in patent US20100210590A1, “COMPOSITIONS AND TREATMENTS FOR SEIZURE-RELATED DISORDERS” (NORTHWESTERN UNIVERSITY, priority 1995, published 2010).
Where a name gives a salt, the structure may show the parent alone.

What was measured:
[1] = Solubility (logS experimental, aqueous solubility, DMSO); type: physicochemical
[2] = test system: KA-induced seizures on P15; assay: Y-maze test of spontaneous alternation after KA-induced early-life seizures; type: in vivo, rat; conditions: Mzc 5 mg/kg ip at 3 and 9 hr after KA on P15; after 30 days recovery; mean±SEM
Method: On either postnatal day (P)15 or 45, rats were administered either KA (Ocean Produce International, Nova Scotia) or equivalent volume of vehicle, phosphate-buffered saline (PBS, pH 7.4) (2). The dose of KA on P 15 (5 mg/kg) and P45 (15 mg/kg) was based on the age-dependent difference in threshold for KA-induced seizures (22). All injections were intraperitoneal (ip).
The Y-maze test of spontaneous alternation was used to evaluate hippocampus-dependent spatial learning (26, 27). Testing began on P27 when animals were first able to decide between the left or right arm of the maze. Testing was performed by a blinded observer on alternate days until P55. Each animal started in the vertical arm of the Y-maze. If the animal selected a different arm on the second run in the maze, it was scored as alternating. The percent alternation over the duration of testing was calculated for each animal.
To determine whether suppression of early cytokine increases would prevent long-term glial activation and improve neurobehavioral outcome after early-life seizures, P15 rats were administered Minozac (Mzc). […] Mzc (5 mg/kg) or diluent (saline) was administered via ip injection at 3 and 9 hr following KA injection on P15 (FIG. 7). Control animals were injected an equal volume of saline (Sal). […]

IL-1β = assay: ELISA of hippocampal homogenates after KA-induced seizures on P15: IL-1β; type: in vivo, rat; conditions: Mzc 5 mg/kg ip at 3 and 9 hr after KA on P15; 12 hr recovery; mean±SEM
Method: (§1) Hippocampal homogenates were prepared by sonication in protease inhibitor cocktail (1 μg leupeptin (Sigma, St. Louis, Mo.), 0.001 M 4-dithio-L-threitol (DTT, Sigma), 0.002 M sodium orthovanadate (Sigma) and 0.001 M phenylmethanesulfonyl fluorid (PMSF, FLUKA, Switzerland) in 1 ml PBS). Total protein concentration was measured using commercially available reagents (BCA, Pierce, Rockford, Ill.).
(§2) Levels of IL-1β, IL-6, and TNF-α, were measured in hippocampal homogenates by enzyme linked immunosorbent assay using commercially available plates and reagents (ELISA; MesoScale Discovery, MSD, Gaithersburg, Md.). S100B levels were measured as described (26). Samples were analyzed in duplicates and compared with known concentrations of protein. Plates were analyzed using the SECTOR Imager 2400 (MSD).
(§3) To determine whether suppression of early cytokine increases would prevent long-term glial activation and improve neurobehavioral outcome after early-life seizures, P15 rats were administered Minozac (Mzc). […] Mzc (5 mg/kg) or diluent (saline) was administered via ip injection at 3 and 9 hr following KA injection on P15 (FIG. 7). Control animals were injected an equal volume of saline (Sal). At 12 hr, animals were sacrificed, and tissues were processed for analysis of pro-inflammatory cytokines by ELISA as above.

IL-6 = assay: ELISA of hippocampal homogenates after KA-induced seizures on P15: IL-6; type: in vivo, rat; conditions: Mzc 5 mg/kg ip at 3 and 9 hr after KA on P15; 12 hr recovery; mean±SEM
Method: as §1, §2, §3

TNF-α = assay: ELISA of hippocampal homogenates after KA-induced seizures on P15: TNF-α; type: in vivo, rat; conditions: Mzc 5 mg/kg ip at 3 and 9 hr after KA on P15; 12 hr recovery; mean±SEM
Method: as §1, §2, §3

S100B [3] = assay: S100B level in hippocampal homogenates after KA-induced seizures on P15; type: in vivo, rat; conditions: Mzc 5 mg/kg ip at 3 and 9 hr after KA on P15; 12 hr recovery; mean±SEM
Method: as §1, §2, §3

GFAP = assay: Immunohistochemical quantification of GFAP immunoreactive cells in hippocampus (glial activation); type: in vivo, rat; conditions: Mzc 5 mg/kg ip at 3 and 9 hr after KA on P15; 30 days recovery; mean±SEM
Method: (§4) Immunohistochemical detection of hippocampal markers of glial activation and astrocyte glutamate transporters was performed in five μm paraffin-embedded sections using Vectastain Elite ABC immunodetection kits and diaminobenzidine substrate (DAB) (Vector Laboratories, Burlingame Calif.). The following primary antibodies were used: GFAP (1:1500, mouse monoclonal, Sigma); S100B (1:1500, rabbit polyclonal, DAKO Cytomation, Carpinteria, Calif.); Ibal (1:400, goat polyclonal, Abcam, Cambridge, Mass.); FH (1:400, goat polyclonal, Quidel); β-clusterin (1:100, goat polyclonal, Santa Cruz); GLAST (1:5000 guinea pig polyclonal, Chemicon International, Temecula, Calif.) and GLT-1 (1:5000, guinea pig polyclonal, Chemicon). Control sections were incubated in normal serum or PBS in place of primary antibody. […]
(§5) Sections were examined under brightfield microscopy by two blinded observers (Nikon Eclipse E800). For GFAP, S100B, Ibal, FH, clusterin, GLAST and GLT-1 sections, the CAI, CA2, CA3, DG and PoDG were photographed at 10× magnification, and images were converted to grayscale for quantification of immunoreactive cells. The percentage of positive cells in the hippocampal regions specified was measured by thresholding for dark objects indicative of immunoreactive cells (Metamorph, Universal Imaging Corporation, Sunnyvale, Calif.). […] Changes in the morphology of immunoreactive cells were not assessed. […]

S100B [4] = assay: Immunohistochemical quantification of S100B immunoreactive cells in hippocampus (glial activation); type: in vivo, rat; conditions: Mzc 5 mg/kg ip at 3 and 9 hr after KA on P15; 30 days recovery; mean±SEM
Method: as §4, §5

[5] = test system: Alzheimer's disease mouse model; conditions: cited from earlier work
[6] = cited from earlier work

Row | Compound | solubility in DMSO [1] | percent alternation in Y-maze [2] [% alternation] | IL-1β level in hippocampal brain homogenates (IL-1β) [% control] | IL-6 level in hippocampal brain homogenates (IL-6) [% control] | TNF-α level in hippocampal brain homogenates (TNF-α) [% control] | S100B level in hippocampal brain homogenates (S100B [3]) [% control] | GFAP immunoreactive cells in hippocampus (GFAP) [% immuno-positive cells] | S100B immunoreactive cells in hippocampus (S100B [4]) [% immuno-positive cells] | effect on hippocampal pro-inflammatory cytokine upregulation [5] | effect on hippocampal-dependent behavioral deficits [5] | effect on synaptic dysfunction [5] | CNS penetration [6] | bioavailability [6] | toxicity [6] | water solubility [6]
1 | Cc1cc(-c2ccccc2)nnc1N1CCN(c2ncccn2)CC1.Cl.Cl [2-(4-(4-methyl-6-phenylpyridazin-3-yl)piperazin-1-yl)pyrimidine dihydrochloride salt] | soluble in DMSO |  |  |  |  |  |  |  |  |  |  |  |  |  | 
2 | Cc1cc(-c2ccccc2)nnc1N1CCN(c2ncccn2)CC1 [Mzc, 2-(4-(4-methyl-6-phenylpyridazin-3-yl)piperazin-1-yl)pyrimidine dihydrochloride monohydrate] |  | 79.5±2.5 | 103.7±4.6 | 103.2±3.8 | 98.5±3.9 | 89.1±9.7 | 20.9±1.8 | 8.1±0.9 | inhibits hippocampal pro-inflammatory cytokine upregulation | attenuates hippocampal-dependent behavioral deficits | suppresses synaptic dysfunction | CNS-penetrant | bioavailable | non-toxic | water-soluble
